Data from patent US9943506B2, “BCL6 inhibitors as anticancer agents” (Cornell University, priority 2013, dated 2018).
Like-named read-outs stand apart in the source and are kept apart here.

Tests used:
PLZF-BTB = biological target: T1, PLZF-BTB (Homo sapiens, UniProt Q05516); settings: earlier work on 79-6; cited from earlier work
T1 construct: the repression activity of the HIC1, PLZF, or Kaiso BTB domains; expressed in transfected cells; host or cells: 293T
T1 sequence (Q05516 34-96 limits assumed): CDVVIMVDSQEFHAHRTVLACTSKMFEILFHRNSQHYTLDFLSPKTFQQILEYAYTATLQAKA

BCL6-BTB = BCL6-BTB (Homo sapiens, UniProt P41182); assay: MicroScale Thermophoresis binding to BCL6-BTB; settings: affinity to the BCL6-BTB domain
Description: (§1) BCL6 is also required for normal development of germinal center (GC) B-cells.
Recombinant BCL6-BTB was labeled using the RED-NHS Labeling kit (NanoTemper Technologies). […] The label:protein ratio was determined using photometry at 650 nm and Bradford reagent. […] The labeled BCL6-BTB was adjusted to 400 nM with PBS (Thermo) buffer supplemented with 0.05% Tween-80 (Fisher scientific). […] After 10 min incubation, approximately 4 μL of each solution was filled into Monolith NT Standard Treated Capillaries (NanoTemper Technologies GmbH). Thermophoresis was measured using a Monolith NT.115 instrument (NanoTemper Technologies GmbH) at an ambient temperature of 25° C. with 5 s/30 s/5 s laser off/on/off times, respectively. Instrument parameters were adjusted with 90% LED power and 40% MST power. Data of three independent experiments were analyzed (NT.Analysis software version 1.5.41, NanoTemper Technologies) using the signal from Thermophoresis.

human DLBCL xenografts = settings: mice; earlier work on 79-6; cited from earlier work
HIC1-BTB = biological target: T2, HIC1-BTB (Homo sapiens, UniProt Q14526); settings: earlier work on 79-6; cited from earlier work
T2 construct: expressed in transfected cells; host or cells: 293T
T2 sequence (Q14526 47-110 limits assumed): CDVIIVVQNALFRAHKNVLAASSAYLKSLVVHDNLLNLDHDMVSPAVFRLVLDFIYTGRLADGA

mice [1] = settings: earlier work on 79-6; cited from earlier work
Karpas 422 DLBCL cells = assay: Growth inhibition of DLBCL cells, Karpas 422; type: cell-based; settings: Homo sapiens
Description: (§2) 50,000 cells per well were treated for 48 hours with different concentrations of the compounds in 96 well plates, using DMSO as a control. Then, viability was determined with Cell Titer Blue™ (Promega) and growth inhibition was calculated as the percentage of viable cells with respect to cells treated with DMSO alone. GI50 values were determined by dose-response curves.
(§3) 293T cells were grown in Dulbecco's modified Eagles medium supplemented with 10% fetal bovine serum (FBS) (Gemini Bio-Products, Woodland, Calif.) and 1% penicillin-streptomycin. DLBCL cell lines OCI-Ly1, OCI-Ly1-B50, OCI-Ly7, OCI-Ly10 and OCI-Ly19 were grown in 80% Iscove's medium, 20% FBS and penicillin G/streptomycin. DLBCL cell lines Toledo, Farage, SU-DHL4, DOHH-2, SC-1, RCK8, TMD8, HBL-1, Ly3, Karpas 422 and SU-DHL6 were cultured in 90% RPMI medium, 10% FBS, 2 mM glutamine, 10 mM Hepes and penicillin G/streptomycin. All cell lines were cultured at 37° C. in a humidified atmosphere of 5% CO2.

SUDHL6 DLBCL cells = assay: Growth inhibition of DLBCL cells, SUDHL6; type: cell-based; settings: Homo sapiens, SU-DHL-6
Description: as §2, §3

Ly4 DLBCL cells = assay: Growth inhibition of DLBCL cells, Ly4; type: cell-based; settings: Table 9; Bcl6 independent; read-out: GI 50 Ly4
Description: as §2

Toledo DLBCL cells = assay: Growth inhibition of DLBCL cells, Toledo; type: cell-based; settings: Homo sapiens
Description: as §2, §3

Ly1 DLBCL cells = assay: Growth inhibition of DLBCL cells, Ly1; type: cell-based; settings: Table 9; Bcl6 dependent; read-out: GI 50 Ly1
Description: as §2, §3

Ly7 DLBCL cells = assay: Growth inhibition of DLBCL cells, Ly7; type: cell-based
Description: as §2, §3

Ly1B50 DLBCL cells = assay: Growth inhibition of DLBCL cells, Ly1B50; type: cell-based
Description: as §2, §3

Ly10 DLBCL cells = assay: Growth inhibition of DLBCL cells, Ly10; type: cell-based
Description: as §2, §3

Ly3 DLBCL cells = assay: Growth inhibition of DLBCL cells, Ly3; type: cell-based
Description: as §2, §3

WSU-DLCL2 DLBCL cells = assay: Growth inhibition of DLBCL cells, WSU-DLCL2; type: cell-based; settings: Homo sapiens, WSUDLCL2; Table 9; Bcl6 independent; read-out: GI 50 WSUDLCL2
Description: as §2

[2] = tested on: BCL6 dependent aggressive ABC DLBCLs; assay: ABC DLBCL in vitro and in vivo treatment
Source text: as §1

[3] = tested on: BCL6 dependent GCB DLBCLs; assay: GCB DLBCL tumors in vivo
Source text: as §1

[4] = Stability in administration vehicle by NMR spectroscopy; type: physicochemical
Description: First, the stability of the compound in the administration vehicle of 30% PEG-300, 5% Tween-80, and 65% dextrose 5%, was evaluated at room temperature over a period of up to 8 days by NMR spectroscopy.
(§4) The toxic effects of 1085 on mice were then examined. Five C57BL/6 mice were exposed to daily intraperitoneal (IP) administration of increasing doses of the compound ranging from 50 to 150 mg/kg over the course of 7 days, to a cumulative dose of 750 mg/kg, and another five mice were exposed to vehicle only. […] Brain, heart, lung, liver, kidney, bowel, spleen, and bone marrow tissues were examined. Complete peripheral blood counts, biochemistry and liver function tests were normal.

mice [5] = assay: Toxicity of 1085 in mice; type: in vivo; settings: C57BL/6 mice, daily IP 50 to 150 mg/kg over 7 days
Description: […]. BCL6 is also required for normal development of germinal center (GC) B-cells. […]. Noteworthy, BCL6 dependent aggressive ABC DLBCLs were also sensitive to the in vitro and in vivo treatment with 1085, and even primary human ABC DLBCL samples were sensitive to the treatment with the new BCL6 inhibitor.
as §4, with “[…].” for “The toxic effects of 1085 on mice were then examined.”

[6] = Pharmacokinetics in vitro and in vivo
[7] = tested on: primary human ABC DLBCL samples; assay: Primary human ABC DLBCL samples
germinal center = assay: Germinal center formation in immunized mice; settings: 10 days, 100 mg/kg
[8] = Table 2, BCL-6 independent, 48 hours
[9] = Table 2, BCL-6 dependent, 48 hours

O=C(O)CC(C(=O)O)N1C(=O)/C(=C2/C(=O)Nc3ccc(Br)cc32)SC1=S (stereo not shown) [Compound 79-6]
inhibition of PLZF BTB domain (PLZF-BTB): not other BTB domains | Kd (BCL6-BTB): ~120 µM | effect on human DLBCL xenografts (human DLBCL xenografts): suppresses human DLBCL xenografts | inhibition of HIC1 BTB domain (HIC1-BTB): not other BTB domains | toxicity (mice [1]): not toxic

C[C@@H](OC(=O)CN1C(=O)C(=O)c2cc(Cl)ccc21)c1ccccc1 [Compound 361]
GI50 (Karpas 422 DLBCL cells; Table 9, Bcl6 independent, read-out: GI 50 K422): 20 µM | GI50 (SUDHL6 DLBCL cells; Table 9, Bcl6 dependent, read-out: GI 50 SUDHL6): 7 µM | GI50 (Ly4 DLBCL cells): 98 µM | GI50 (Toledo DLBCL cells; Table 9, Bcl6 independent, read-out: GI 50 Toledo): 39 µM | GI50 (Ly1 DLBCL cells): 24 µM | GI50 (Ly7 DLBCL cells; Table 9, Bcl6 dependent, read-out: GI 50 Ly7): 26 µM | GI50 (Ly1B50 DLBCL cells; Table 9, Bcl6 independent, read-out: GI 50 Ly1B50): 103 µM | GI50 (Ly10 DLBCL cells; Table 9, Bcl6 dependent, read-out: GI 50 Ly10): 166 µM | GI50 (Ly3 DLBCL cells; Table 9, Bcl6 dependent, read-out: GI 50 Ly3): 56 µM | GI50 (WSU-DLCL2 DLBCL cells): 41 µM

O=C(O)CCN1C(=O)/C(=C2/C(=O)Nc3ccc(Cl)cc32)SC1=S [Compound 1085, (Z)-3-(5-(5-Chloro-2-oxoindolin-3-ylidene)-4-oxo-2-thioxothiazolidin-3-yl)propanoic acid]
GI50 (Karpas 422 DLBCL cells; Table 2, BCL-6 independent, 48 hours, read-out: GI50 Karpas 422): > 40 µM | GI50 (SUDHL6 DLBCL cells; Table 2, BCL-6 dependent, 48 hours, read-out: GI50 SUDH6): 14 ± 7 µM | sensitivity of ABC DLBCLs to treatment [2]: sensitive | tumors with tumor regression [3]: 95% | GI50 (Toledo DLBCL cells; [8]): > 40 µM | GI50 (Ly7 DLBCL cells; [9]): 23 ± 9 µM | GI50 (Ly1B50 DLBCL cells; [8]): > 40 µM | stability in solution [4]: very stable in solution | stability of the compound in the administration vehicle ([4]; 30% PEG-300, 5% Tween-80, 65% dextrose 5%, room temperature, 8 days, NMR): No significant changes in the structure | GI50 (Ly10 DLBCL cells; [9]): 23.5 ± 0.2 µM | complete peripheral blood counts, biochemistry and liver function tests (mice [5]): normal | toxic effects or other indicators of sickness (mice [5]; cumulative 750 mg/kg): No toxic effects | pharmacokinetics [6]: favorable pharmacokinetics | sensitivity of primary human ABC DLBCL samples [7]: sensitive | GI50 (Ly3 DLBCL cells; [9]): > 40 µM | effect on germinal center (germinal center): inhibited the germinal center
